Converted amounts (≈) assume the structure as drawn.
Experiments:
[1] = test system: NF-κB in THP1-Blue NF-κB cells; test: NF-κB activity assay (SEAP reporter, LPS-induced); format: cell-based; settings: 20 μM, LPS 10 ng/mL
Procedure: THP1-Blue NF-κB cells, NF-κB secreted embryonic alkaline phosphatase (SEAP) reporter monocytes (InvivoGen, USA), were assayed after 20–24 h of incubation following the manufacturer’s protocol. Briefly, cells were seeded at 1 × 10^6 cells/mL in RPMI medium in 96-well plates (180 μL) and treated with complex 3 or 4, Lipopolysaccharide (LPS) (10 ng/mL; […] The next day, NF-κB activation was assessed via the secretion of SEAP. Supernatants (20 μL) were transferred to 96-well plates, and 180 μL of Quanti-Blue was added. Plates were incubated for 2 h at 37°C, and absorbance was measured at 600 nm using an […] 200 PRO microplate reader (TECAN, Switzerland).

CAL 27 cell line [2] = settings: cited from earlier work
Detroit 562 cell line = test system: Detroit 562 cell line; set-up: method as in PMID 32121279, PMID 19317462; settings: Detroit 562 cell line ref 50, 51; cited from earlier work
HGF = test system: HGF; set-up: method as in PMID 34657625; settings: concentration range 0.1–20 μM ref 54; cited from earlier work
OSCC cells = test system: OSCC cells; set-up: method as in PMID 32391111; settings: Ohnishi et al. ref 57; cited from earlier work
SCC-9 cell line [3] = test system: SCC-9 cell line; set-up: method as in PMID 32628350, PMID 25450696; settings: SCC-9 cell line ref 48, 49; cited from earlier work
SCC-9 cell line [4] = test system: SCC-9 cell line; set-up: method as in PMID 25450696; settings: SCC-9 cell line ref 49; cited from earlier work
KB cell line = test system: KB cell line; set-up: method as in PMID 36278627; settings: 48 h of treatment ref 53; cited from earlier work
THP1-Blue NF-κB cells = test: MTT viability assay of THP1-Blue NF-κB cells; format: cell-based; settings: concentrations of the NF-κB activity assay, overnight
Procedure: A total of 20 μL of sterile filtered MTT (Sigma-Aldrich, Merck, Germany) solution (5 mg/mL in PBS) was added to the remaining overnight culture of THP1-Blue NF-κB cells from the above NF-κB activity assay in 96-well plates, which were incubated at 37°C (see above). After 2 h of incubation at 37°C, the supernatant was removed, and the purple formazan product generated in the cells was dissolved by the addition of 100 μL of DMSO to each well. The plates were then gently shaken for 30 s at room temperature to dissolve the precipitates. The absorbance was measured at 570 nm using an […] 200 PRO microplate reader (TECAN, Switzerland) ([43]).

CAL 27 cell line [5] = test system: CAL 27 cell line; set-up: method as in PMID 32060973, PMID 32099333; settings: CAL 27 cell line ref 46, 47; cited from earlier work
Hep-2 cell line [6] = settings: Hep-2 cell line ref 56; cited from earlier work
A549 cell line = test system: A549 cell line; set-up: method as in PMID 32598409; settings: A549 cell line ref 33; cited from earlier work
CAL 27 cell line [7] = test system: CAL 27 cell line; set-up: method as in PMID 32099333, PMID 25767602; settings: CAL 27 cell line ref 47, 55; cited from earlier work
FaDu cell line [8] = test system: FaDu cell line; set-up: method as in PMID 25767602; settings: FaDu cell line ref 55; cited from earlier work
Hep-2 cell line [9] = test system: Hep-2 cell line; set-up: method as in PMID 23513724; settings: HPV-positive Hep-2 cell line ref 52; cited from earlier work
IKKβ = target: T1, IKKβ (Homo sapiens, UniProt O14920); test: IKKβ inhibition assay (IKKβ Kinase Assay Kit); format: biochemical; settings: fivefold higher concentration than 1 μM
T1 construct: purchased BPS Bioscience
T1 sequence (O14920 1-756): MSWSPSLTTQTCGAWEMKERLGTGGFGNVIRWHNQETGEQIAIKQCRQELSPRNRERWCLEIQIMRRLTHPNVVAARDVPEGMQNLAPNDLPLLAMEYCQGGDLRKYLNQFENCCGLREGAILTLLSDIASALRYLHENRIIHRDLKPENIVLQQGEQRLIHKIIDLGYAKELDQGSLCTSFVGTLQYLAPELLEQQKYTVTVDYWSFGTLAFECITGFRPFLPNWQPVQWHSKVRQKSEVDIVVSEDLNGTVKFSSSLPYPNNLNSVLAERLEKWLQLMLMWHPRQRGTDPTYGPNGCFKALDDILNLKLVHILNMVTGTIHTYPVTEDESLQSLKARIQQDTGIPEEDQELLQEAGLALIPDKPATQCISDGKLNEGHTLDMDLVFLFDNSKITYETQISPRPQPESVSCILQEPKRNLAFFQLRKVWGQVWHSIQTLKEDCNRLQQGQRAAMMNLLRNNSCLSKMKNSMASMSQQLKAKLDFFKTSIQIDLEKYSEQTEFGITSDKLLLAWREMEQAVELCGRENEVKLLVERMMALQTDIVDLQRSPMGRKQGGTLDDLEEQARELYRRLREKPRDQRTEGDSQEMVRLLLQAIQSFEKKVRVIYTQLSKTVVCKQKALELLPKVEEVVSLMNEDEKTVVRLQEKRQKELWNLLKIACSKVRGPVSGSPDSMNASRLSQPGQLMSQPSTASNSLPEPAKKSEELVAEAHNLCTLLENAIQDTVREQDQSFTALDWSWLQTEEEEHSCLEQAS
Procedure: IκB kinase beta (IKKβ) inhibition was determined using the IKKβ Kinase Assay Kit (BPS Bioscience, San Diego, California, USA). […] Kinase-Glo® MAX (Promega, #V6071, Madison, Wisconsin, USA) was used as the detection reagent, with an incubation time of 15 min. Blank values were subtracted from all measurements. Luminescence was measured with an integration time of 1 s using a Spark Microplate Reader (Tecan, Switzerland).

FaDu cell line [10] = test system: FaDu cell line; set-up: method as in PMID 32628350; settings: FaDu cell line ref 48; cited from earlier work

Inhibition of IKKβ activity (IKKβ): approximately 30%
SMILES: COc1cc(/C=C/C(=O)CC(=O)/C=C/c2ccc(O)c(OC)c2)ccc1O [Curcumin, curcumin]
Reduction of LPS-induced NF-κB activation [1]: approximately 60%
Concentration reducing cell migratory capacity (CAL 27 cell line [2]; CAL 27 cell line ref 47, 55): 50 µM
Concentration significantly inhibiting migration (CAL 27 cell line [2]; CAL 27 cells, Ma et al. ref 47): 100 µM
Concentration showing cytotoxicity (Detroit 562 cell line): around 20 μM
Effect on cell viability (HGF): did not significantly affect cell viability
Concentration inhibiting migration (OSCC cells): 15 µM
IC50 (SCC-9 cell line [3]): 40.9 µM
Concentration suppressing colony formation (SCC-9 cell line [4]): 40 µM
IC50 (KB cell line): 8.84 µg/mL (≈ 24 µM)
Cytotoxicity in THP1-Blue NF-κB cells (MTT) (THP1-Blue NF-κB cells): Neither complex 3, complex 4, nor curcumin exhibited significant cytotoxicity
IC50 (CAL 27 cell line [5]): 49.9 µM
Concentration with significant inhibition of colony formation and cell migration (Hep-2 cell line [6]): 20 µM
IC50 (A549 cell line): 13.1 µM
Concentration inhibiting colony formation (CAL 27 cell line [7]): ≥ 12.5 µM
Concentration suppressing colony formation (FaDu cell line [8]): 12.5 µM
IC50 (Hep-2 cell line [9]): ~50 µM
IC50 (FaDu cell line [10]): 24.8 µM
